Assay [1] has as its target T1, Activin receptor type-1B (Homo sapiens, UniProt P36896).
T1 sequence (P36896 whole entry): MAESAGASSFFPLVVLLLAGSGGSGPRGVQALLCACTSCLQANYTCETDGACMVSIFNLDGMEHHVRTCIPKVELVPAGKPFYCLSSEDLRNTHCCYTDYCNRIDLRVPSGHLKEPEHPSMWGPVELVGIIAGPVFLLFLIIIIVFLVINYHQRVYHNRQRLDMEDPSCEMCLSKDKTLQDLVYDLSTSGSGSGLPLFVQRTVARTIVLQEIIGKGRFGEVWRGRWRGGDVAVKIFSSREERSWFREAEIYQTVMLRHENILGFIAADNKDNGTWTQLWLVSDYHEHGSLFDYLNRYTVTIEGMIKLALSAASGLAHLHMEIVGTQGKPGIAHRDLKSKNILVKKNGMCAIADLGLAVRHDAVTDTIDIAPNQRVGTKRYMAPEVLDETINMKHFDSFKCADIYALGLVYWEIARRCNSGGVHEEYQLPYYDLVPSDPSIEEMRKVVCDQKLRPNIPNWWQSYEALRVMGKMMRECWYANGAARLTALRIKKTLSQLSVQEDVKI

For assay [2], the target named is T2, Serine/threonine-protein kinase A-Raf (Homo sapiens, UniProt P10398).
T2 sequence (P10398 whole entry): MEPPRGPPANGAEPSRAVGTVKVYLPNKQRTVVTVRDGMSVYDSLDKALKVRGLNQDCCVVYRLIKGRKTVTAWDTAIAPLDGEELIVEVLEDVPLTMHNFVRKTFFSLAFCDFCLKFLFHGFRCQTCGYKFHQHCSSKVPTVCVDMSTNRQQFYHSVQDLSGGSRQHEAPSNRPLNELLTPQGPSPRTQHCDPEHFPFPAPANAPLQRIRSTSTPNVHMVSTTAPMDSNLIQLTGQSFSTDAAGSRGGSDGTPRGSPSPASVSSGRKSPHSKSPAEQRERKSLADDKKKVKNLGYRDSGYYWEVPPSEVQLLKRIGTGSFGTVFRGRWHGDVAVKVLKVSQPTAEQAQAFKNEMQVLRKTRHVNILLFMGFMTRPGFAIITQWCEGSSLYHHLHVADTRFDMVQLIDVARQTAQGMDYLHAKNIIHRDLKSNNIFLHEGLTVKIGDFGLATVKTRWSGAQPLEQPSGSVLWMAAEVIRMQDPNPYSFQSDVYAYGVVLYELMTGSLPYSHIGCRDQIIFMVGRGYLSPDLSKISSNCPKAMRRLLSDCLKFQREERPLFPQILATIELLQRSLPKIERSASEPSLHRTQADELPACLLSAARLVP

The target in assay [3] is Tyrosine-protein kinase CSK (Homo sapiens, UniProt P41240).
Sequence of Tyrosine-protein kinase CSK (P41240 whole entry): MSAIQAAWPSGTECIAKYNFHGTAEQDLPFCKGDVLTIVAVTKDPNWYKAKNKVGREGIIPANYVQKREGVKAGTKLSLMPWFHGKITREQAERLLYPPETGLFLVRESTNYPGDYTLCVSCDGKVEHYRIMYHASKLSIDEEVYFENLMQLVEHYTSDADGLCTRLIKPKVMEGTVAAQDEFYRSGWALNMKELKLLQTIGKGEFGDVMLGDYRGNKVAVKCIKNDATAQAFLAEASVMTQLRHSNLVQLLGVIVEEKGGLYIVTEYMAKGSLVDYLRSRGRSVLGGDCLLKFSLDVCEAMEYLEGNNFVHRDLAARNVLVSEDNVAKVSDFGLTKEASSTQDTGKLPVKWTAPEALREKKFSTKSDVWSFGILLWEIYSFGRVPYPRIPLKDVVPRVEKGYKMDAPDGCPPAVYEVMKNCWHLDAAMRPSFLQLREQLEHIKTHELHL
In assay [4] the target is Deoxycytidine kinase (Homo sapiens, UniProt P27707).
Sequence of Deoxycytidine kinase (P27707 whole entry): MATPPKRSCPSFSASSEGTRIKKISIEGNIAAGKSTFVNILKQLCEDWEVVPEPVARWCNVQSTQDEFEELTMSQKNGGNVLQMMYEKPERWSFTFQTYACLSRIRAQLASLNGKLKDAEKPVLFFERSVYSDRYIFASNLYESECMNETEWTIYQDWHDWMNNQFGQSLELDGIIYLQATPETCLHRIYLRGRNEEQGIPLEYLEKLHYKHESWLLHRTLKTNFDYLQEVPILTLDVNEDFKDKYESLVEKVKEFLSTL
The target in assay [5] is Tyrosine-protein kinase Fyn (Homo sapiens, UniProt P06241).
Sequence of Tyrosine-protein kinase Fyn (P06241 whole entry): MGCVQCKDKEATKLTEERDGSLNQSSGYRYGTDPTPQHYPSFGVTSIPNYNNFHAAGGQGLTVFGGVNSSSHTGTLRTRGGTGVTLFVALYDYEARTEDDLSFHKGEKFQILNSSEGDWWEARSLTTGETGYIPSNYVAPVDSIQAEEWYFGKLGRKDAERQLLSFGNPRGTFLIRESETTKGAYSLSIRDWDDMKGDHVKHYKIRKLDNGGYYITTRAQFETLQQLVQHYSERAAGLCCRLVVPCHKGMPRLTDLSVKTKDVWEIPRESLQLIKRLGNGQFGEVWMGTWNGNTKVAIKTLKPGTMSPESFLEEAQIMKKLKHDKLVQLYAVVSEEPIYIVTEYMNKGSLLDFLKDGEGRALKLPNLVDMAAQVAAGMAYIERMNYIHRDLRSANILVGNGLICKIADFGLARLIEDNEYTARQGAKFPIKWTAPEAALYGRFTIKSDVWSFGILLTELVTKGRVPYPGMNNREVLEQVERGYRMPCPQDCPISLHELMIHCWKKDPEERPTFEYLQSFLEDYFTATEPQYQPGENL
Assay [6] deals with Putative heat shock protein HSP 90-beta 2 (Homo sapiens, UniProt Q58FF8).
Sequence of Putative heat shock protein HSP 90-beta 2 (Q58FF8 whole entry): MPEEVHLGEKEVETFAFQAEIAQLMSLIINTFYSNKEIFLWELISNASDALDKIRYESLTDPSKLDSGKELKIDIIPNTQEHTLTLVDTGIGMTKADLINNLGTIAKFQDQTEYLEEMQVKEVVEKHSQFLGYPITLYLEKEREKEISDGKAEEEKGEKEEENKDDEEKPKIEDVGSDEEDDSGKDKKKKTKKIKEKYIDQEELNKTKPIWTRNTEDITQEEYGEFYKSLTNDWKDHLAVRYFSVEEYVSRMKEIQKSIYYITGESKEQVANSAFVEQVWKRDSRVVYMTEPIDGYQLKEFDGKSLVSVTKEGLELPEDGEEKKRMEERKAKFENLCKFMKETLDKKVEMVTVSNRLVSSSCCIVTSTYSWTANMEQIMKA
Assay [7] deals with Mitogen-activated protein kinase kinase kinase 1 (Homo sapiens, UniProt Q13233).
Sequence of Mitogen-activated protein kinase kinase kinase 1 (Q13233 whole entry): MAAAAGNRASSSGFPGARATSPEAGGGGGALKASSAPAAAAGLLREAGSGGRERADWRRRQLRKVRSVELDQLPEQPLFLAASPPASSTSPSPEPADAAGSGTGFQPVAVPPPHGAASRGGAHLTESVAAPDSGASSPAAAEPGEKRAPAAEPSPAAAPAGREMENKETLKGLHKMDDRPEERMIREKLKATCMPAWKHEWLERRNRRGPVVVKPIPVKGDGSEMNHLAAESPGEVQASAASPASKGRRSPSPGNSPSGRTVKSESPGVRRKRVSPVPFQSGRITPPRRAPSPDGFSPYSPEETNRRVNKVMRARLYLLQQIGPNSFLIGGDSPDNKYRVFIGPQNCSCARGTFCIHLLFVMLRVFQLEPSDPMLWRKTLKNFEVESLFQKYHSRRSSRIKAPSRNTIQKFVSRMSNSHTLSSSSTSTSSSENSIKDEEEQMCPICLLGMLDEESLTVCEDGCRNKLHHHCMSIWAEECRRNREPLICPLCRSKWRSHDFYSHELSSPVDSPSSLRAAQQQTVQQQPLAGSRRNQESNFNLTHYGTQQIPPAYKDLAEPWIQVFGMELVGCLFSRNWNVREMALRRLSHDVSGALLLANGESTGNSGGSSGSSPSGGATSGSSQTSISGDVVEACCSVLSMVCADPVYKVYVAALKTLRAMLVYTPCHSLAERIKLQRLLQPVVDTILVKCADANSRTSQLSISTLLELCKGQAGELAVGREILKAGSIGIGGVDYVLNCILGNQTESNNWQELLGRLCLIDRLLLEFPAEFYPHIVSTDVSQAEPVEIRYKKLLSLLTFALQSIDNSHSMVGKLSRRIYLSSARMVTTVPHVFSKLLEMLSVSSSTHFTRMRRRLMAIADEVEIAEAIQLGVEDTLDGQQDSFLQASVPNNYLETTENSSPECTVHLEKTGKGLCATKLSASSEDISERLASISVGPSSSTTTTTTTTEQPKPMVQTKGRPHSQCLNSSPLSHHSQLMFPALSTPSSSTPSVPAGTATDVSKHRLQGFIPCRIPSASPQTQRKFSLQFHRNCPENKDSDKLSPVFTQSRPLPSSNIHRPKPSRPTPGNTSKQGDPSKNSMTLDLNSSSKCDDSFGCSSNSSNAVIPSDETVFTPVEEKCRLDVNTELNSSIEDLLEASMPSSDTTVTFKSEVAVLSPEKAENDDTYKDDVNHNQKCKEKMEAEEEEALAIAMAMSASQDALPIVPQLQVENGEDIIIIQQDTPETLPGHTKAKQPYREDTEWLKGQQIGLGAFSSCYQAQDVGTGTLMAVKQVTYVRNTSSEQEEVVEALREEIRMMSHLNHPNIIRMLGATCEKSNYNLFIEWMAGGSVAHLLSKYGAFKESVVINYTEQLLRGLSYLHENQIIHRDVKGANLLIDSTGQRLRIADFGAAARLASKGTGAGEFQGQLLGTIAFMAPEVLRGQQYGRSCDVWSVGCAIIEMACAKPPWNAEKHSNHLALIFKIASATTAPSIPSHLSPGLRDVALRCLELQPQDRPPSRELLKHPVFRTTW
For assay [8], the target named is 5'-AMP-activated protein kinase catalytic subunit alpha-1 (Homo sapiens, UniProt Q13131).
Sequence of 5'-AMP-activated protein kinase catalytic subunit alpha-1 (Q13131 whole entry): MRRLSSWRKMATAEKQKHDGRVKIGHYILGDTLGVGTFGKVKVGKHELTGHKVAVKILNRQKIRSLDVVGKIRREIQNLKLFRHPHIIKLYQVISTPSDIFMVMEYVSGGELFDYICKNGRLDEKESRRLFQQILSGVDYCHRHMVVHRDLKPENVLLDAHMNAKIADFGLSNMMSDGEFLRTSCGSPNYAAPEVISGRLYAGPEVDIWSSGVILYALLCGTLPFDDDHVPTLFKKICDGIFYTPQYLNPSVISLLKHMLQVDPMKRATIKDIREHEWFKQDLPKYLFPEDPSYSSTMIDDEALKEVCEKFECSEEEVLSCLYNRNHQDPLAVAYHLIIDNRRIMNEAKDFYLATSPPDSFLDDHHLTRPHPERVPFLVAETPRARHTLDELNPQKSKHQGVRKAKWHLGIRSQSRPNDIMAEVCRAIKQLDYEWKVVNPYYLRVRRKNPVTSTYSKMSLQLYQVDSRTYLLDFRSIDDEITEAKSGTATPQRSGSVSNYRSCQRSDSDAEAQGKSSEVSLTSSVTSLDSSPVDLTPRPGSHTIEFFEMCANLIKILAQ
Assay [9] addresses cAMP-dependent protein kinase catalytic subunit alpha (Homo sapiens, UniProt P17612).
The target of assay [10] is GTP-binding nuclear protein Ran (Homo sapiens, UniProt P62826).
Assay [11] concerns the target Ribosomal protein S6 kinase alpha-4 (Homo sapiens, UniProt O75676).
Assay [12] concerns the target T3, Serine/threonine-protein kinase TAO1 (Homo sapiens, UniProt Q7L7X3).
T3 sequence (Q7L7X3 whole entry): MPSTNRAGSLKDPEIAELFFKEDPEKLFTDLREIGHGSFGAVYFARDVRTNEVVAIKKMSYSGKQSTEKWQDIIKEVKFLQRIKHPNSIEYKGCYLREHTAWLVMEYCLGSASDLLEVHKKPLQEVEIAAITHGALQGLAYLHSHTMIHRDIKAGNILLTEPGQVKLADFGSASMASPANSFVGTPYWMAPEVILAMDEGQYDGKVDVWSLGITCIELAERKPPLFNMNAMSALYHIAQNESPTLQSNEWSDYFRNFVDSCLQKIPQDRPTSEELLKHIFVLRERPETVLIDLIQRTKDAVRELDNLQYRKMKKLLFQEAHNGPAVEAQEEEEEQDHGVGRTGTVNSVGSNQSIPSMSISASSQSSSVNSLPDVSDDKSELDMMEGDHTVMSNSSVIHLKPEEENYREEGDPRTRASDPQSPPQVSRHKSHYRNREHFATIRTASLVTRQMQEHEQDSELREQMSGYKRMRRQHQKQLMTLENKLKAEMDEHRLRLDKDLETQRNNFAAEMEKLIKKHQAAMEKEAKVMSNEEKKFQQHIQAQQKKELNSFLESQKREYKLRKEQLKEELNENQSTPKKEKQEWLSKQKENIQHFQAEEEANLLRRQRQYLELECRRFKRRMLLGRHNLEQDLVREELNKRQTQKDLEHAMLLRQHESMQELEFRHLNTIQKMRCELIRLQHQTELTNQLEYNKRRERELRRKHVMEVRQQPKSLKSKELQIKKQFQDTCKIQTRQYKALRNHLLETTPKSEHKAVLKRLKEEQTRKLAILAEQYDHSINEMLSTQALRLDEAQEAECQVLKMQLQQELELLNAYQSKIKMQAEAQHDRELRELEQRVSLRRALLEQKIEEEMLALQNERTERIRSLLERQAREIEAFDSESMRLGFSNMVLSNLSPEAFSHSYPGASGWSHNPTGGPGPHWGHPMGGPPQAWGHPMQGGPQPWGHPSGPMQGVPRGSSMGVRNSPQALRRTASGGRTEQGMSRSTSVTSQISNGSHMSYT

Assay [13] concerns the target TRAF2 and NCK-interacting protein kinase (Homo sapiens, UniProt Q9UKE5).

The source made the active and inactive calls. For most assays here, no stated cut-off is given here; in the data, actives have a measured Kd and inactives only a lower limit.

Sequence of TRAF2 and NCK-interacting protein kinase (Q9UKE5 whole entry): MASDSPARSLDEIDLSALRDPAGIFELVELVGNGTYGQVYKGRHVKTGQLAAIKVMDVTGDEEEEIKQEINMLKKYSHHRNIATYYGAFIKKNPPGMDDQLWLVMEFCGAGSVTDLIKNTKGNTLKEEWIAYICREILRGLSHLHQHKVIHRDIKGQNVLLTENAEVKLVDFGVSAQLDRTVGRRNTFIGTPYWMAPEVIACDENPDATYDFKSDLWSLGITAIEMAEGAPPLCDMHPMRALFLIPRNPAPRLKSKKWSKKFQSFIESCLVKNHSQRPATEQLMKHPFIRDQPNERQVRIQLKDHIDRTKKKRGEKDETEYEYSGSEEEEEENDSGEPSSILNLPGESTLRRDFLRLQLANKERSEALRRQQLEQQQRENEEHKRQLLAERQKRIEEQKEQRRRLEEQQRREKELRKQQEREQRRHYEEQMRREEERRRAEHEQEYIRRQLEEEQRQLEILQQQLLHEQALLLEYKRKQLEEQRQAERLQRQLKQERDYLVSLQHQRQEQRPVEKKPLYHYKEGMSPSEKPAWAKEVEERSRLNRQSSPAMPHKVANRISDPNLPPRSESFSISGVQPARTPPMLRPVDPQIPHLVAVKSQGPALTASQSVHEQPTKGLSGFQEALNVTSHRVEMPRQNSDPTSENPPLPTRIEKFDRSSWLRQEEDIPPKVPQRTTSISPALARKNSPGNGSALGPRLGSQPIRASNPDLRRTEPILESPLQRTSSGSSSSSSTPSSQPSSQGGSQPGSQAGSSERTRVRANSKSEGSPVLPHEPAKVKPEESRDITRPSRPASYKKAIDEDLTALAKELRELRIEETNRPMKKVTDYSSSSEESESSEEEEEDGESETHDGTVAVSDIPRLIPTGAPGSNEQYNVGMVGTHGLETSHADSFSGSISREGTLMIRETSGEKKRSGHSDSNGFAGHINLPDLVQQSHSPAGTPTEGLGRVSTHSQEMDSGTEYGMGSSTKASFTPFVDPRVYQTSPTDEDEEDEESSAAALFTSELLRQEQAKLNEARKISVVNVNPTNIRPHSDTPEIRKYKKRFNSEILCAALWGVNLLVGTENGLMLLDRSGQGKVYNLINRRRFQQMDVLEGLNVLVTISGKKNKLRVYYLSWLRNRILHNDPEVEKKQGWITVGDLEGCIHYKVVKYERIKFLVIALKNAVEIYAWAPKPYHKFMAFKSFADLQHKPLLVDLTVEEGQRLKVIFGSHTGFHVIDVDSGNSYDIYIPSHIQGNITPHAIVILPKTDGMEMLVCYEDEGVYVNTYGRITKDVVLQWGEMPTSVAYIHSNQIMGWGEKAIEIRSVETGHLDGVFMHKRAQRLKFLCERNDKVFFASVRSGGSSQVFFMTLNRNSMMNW

In general, Kd refers to the concentration at which binding is half-saturated. As for `CC(C)Nc1cc(-c2c[nH]c(C(=O)N[C@H](CO)c3cccc(Cl)c3)c2)c(Cl)cn1` [ULIXERTINIB], the Kd in assay [1], in [2], in assay [3], in [4], in assay [5] and in assay [6] was > 30 µM (inactive) each time. For the same compound, the Kd in [7] was > 30 µM (inactive); in assay [8], > 30 µM (inactive); in [9], > 30 µM (inactive); in assay [10] it was > 30 µM (inactive); in assay [11], > 30 µM (inactive); in assay [12], 0.388 µM (active). Also, the Kd in assay [13] was > 30 µM (inactive).
With `O=C1NC(=O)/C(=C/c2ccc3nccc(-c4ccncc4)c3c2)S1` [GSK-1059615], the Kd in assay [1], in [2], in assay [3], in assay [4], in assay [5] and in [6] was > 30 µM (inactive) throughout. In addition, the Kd in [7] is > 30 µM (inactive); in assay [8], > 30 µM (inactive); in assay [9], > 30 µM (inactive); in assay [10], > 30 µM (inactive); in assay [11] it was 0.499 µM (active); in assay [12], 0.002 µM (active). Also, the Kd in [13] was > 30 µM (inactive).
Regarding `COc1cc(CCc2cc(NC(=O)c3ccc(N4C[C@@H](C)N[C@@H](C)C4)cc3)n[nH]2)cc(OC)c1` [AZD-4547], the Kd in assay [1], in [2], in assay [3], in [4], in [5] and in [6] was > 30 µM (inactive) each time. Moreover, the Kd in assay [7], in assay [8], in assay [9], in assay [10], in assay [11] and in assay [12] was > 30 µM (inactive) in each case. The compound also registered a Kd in assay [13] of 1.39 µM.
Regarding `C[C@@H]1CN(Cc2ccc(F)cc2)[C@@H](C)CN1C(=O)c1cc2c(C(=O)C(=O)N(C)C)cn(C)c2cc1Cl` [TALMAPIMOD], the Kd in [1], in assay [2], in [3], in assay [4], in [5] and in assay [6] was > 30 µM (inactive) each time. Besides, the Kd in assay [7], in [8], in [9], in [10], in assay [11] and in assay [12] was > 30 µM (inactive) each time. The Kd in assay [13] is > 30 µM (inactive).
Take `CCS(=O)(=O)N1CC(CC#N)(n2cc(-c3ncnc4[nH]ccc34)cn2)C1` [BARICITINIB]: the Kd in assay [1], in [2], in assay [3], in assay [4], in assay [5] and in assay [6] was > 30 µM (inactive) throughout. Moreover, the Kd is 1.89 µM (active) in assay [7]; > 30 µM (inactive) in [8]; 3.6 µM (active) in assay [9]; > 30 µM (inactive) in [10]; > 30 µM (inactive) in [11]; > 30 µM (inactive) in assay [12]. Further, the Kd in assay [13] was > 30 µM (inactive).
Consider `COc1ccc(-c2ccc3c(N4CCOC[C@@H]4C)nc(N4CCOC[C@@H]4C)nc3n2)cc1CO` [AZD-8055], for which the Kd in [1], in [2], in [3], in assay [4], in assay [5] and in assay [6] was > 30 µM (inactive) in each case. Further, the Kd in assay [7], in [8], in assay [9], in assay [10], in [11] and in [12] was > 30 µM (inactive) throughout. In addition, the Kd in assay [13] is > 30 µM (inactive).
`CN1CC[C@@H](c2c(O)cc(O)c3c(=O)cc(-c4ccccc4Cl)oc23)[C@@H]1CO`: the Kd in assay [1], in assay [2], in assay [3], in assay [4], in assay [5] and in assay [6] was > 30 µM (inactive) in each case. Also, the Kd in [7], in [8], in assay [9], in assay [10], in [11] and in assay [12] was > 30 µM (inactive) each time. Also, in assay [13], the Kd was > 30 µM (inactive).
`Cn1cc(-c2ccc3nnc(C(F)(F)c4ccc5ncccc5c4)n3n2)cn1` [JNJ-38877605]: the Kd in assay [1], in assay [2], in assay [3], in [4], in [5] and in assay [6] was > 30 µM (inactive) in each case. Also, the Kd in assay [7], in assay [8], in assay [9], in [10], in [11] and in assay [12] was > 30 µM (inactive) in each case. In addition, the Kd in assay [13] was > 30 µM (inactive).
For the compound `Cc1ccc(-n2nc(C(C)(C)C)cc2NC(=O)NCc2cc(F)ccc2Oc2ccc3c(cnn3CCO)c2)cc1` [PEXMETINIB], the Kd in assay [1] was > 30 µM (inactive); in [2], > 30 µM (inactive); in assay [3], > 30 µM (inactive); in [4], > 30 µM (inactive); in assay [5], 2.14 µM; in [6], > 30 µM (inactive). The Kd in assay [7], in assay [8], in assay [9], in assay [10], in assay [11] and in assay [12] was > 30 µM (inactive) throughout. For the same compound, the Kd in [13] is > 30 µM (inactive).

The values are drawn from ChEMBL document CHEMBL3991601, “The target landscape of clinical kinase drugs” (Science, 2017).
